Our source for the Ki values is patent publication US12479830B2, “Homopiperazinyl and homopiperidinyl quinazolin-4(3H)-one derivatives having multimodal activity against pain” (ESTEVE PHARMACEUTICALS, S.A., priority 2019, dated 2025).

One test deals with T1, Human σ1 receptor (Homo sapiens, UniProt Q99720).
T1 construct: expressed in transfected cells; host or cells: HEK-293
The test can be described thus: Human σ1 receptor radioligand assay ([3H](+)-pentazocine binding). The settings on record: binding to the σ1 receptor, expressed as Ki class; + also covers inhibition between 1% and 50%. As to the method:
Human σ1 Receptor Radioligand Assay
Transfected HEK-293 membranes (7 μg) were incubated with 5 nM of [^3H](+)-pentazocine in assay buffer containing Tris-HCl 50 mM at pH 8. NBS (non-specific binding) was measured by adding 10 μM haloperidol. The binding of the test compound was measured at either one concentration (% inhibition at 1 or 10 μM) or five different concentrations to determine affinity values (Ki). Plates were incubated at 37° C. for 120 minutes. After the incubation period, the reaction mix was then transferred to MultiScreen HTS, FC plates (Millipore), filtered and plates were washed 3 times with ice-cold 10 mM Tris-HCL (pH7.4). Filters were dried and counted at approximately 40% efficiency in a MicroBeta scintillation counter (Perkin-Elmer) using EcoScint liquid scintillation cocktail.

Test [1] concerns the target Human α2δ-1 subunit of Cav2.2 calcium channel (Homo sapiens, UniProt P54289). Briefly: Human α2δ-1 subunit of Cav2.2 calcium channel assay ([3H]-gabapentin binding). Particulars: binding to the α2δ-1 subunit of voltage-gated calcium channels, expressed as Ki class; + also covers inhibition between 1% and 50%. As for the experimental part: Human α2δ-1 Subunit of Cav2.2 Calcium Channel Assay
Human α2δ-1 enriched membranes (2.5 μg) were incubated with 15 nM of radiolabeled [^3H]-Gabapentin in assay buffer containing Hepes-KOH 10 mM. pH 7.4. NSB (non specific binding) was measured by adding 10 μM pregabalin. The binding of the test compound was measured at either one concentration (% inhibition at 1 or 10 μM) or five different concentrations to determine affinity values (Ki). After 60 min incubation at 27° C., binding reaction was terminated by filtering through Multiscreen GF/C (Millipore) presoaked in 0.5% polyethyleneimine in Vacuum Manifold Station, followed by 3 washes with ice-cold filtration buffer containing 50 mM Tris-HCl, pH 7.4. Filter plates were dried at 60° C. for 1 h and 30 μL of scintillation cocktail were added to each well before radioactivity reading. Readings were performed in a Trilux 1450 Microbeta radioactive counter (Perkin Elmer).

Each structure is given as a SMILES string.

T1 sequence (Q99720 whole entry): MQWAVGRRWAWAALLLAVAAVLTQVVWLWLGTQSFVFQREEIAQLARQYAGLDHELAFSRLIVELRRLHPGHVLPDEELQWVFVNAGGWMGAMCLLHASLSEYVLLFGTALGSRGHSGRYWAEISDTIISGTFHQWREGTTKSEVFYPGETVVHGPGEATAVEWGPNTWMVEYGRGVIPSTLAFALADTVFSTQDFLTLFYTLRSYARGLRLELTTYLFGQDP
Sequence of Human α2δ-1 subunit of Cav2.2 calcium channel (P54289 25-1103): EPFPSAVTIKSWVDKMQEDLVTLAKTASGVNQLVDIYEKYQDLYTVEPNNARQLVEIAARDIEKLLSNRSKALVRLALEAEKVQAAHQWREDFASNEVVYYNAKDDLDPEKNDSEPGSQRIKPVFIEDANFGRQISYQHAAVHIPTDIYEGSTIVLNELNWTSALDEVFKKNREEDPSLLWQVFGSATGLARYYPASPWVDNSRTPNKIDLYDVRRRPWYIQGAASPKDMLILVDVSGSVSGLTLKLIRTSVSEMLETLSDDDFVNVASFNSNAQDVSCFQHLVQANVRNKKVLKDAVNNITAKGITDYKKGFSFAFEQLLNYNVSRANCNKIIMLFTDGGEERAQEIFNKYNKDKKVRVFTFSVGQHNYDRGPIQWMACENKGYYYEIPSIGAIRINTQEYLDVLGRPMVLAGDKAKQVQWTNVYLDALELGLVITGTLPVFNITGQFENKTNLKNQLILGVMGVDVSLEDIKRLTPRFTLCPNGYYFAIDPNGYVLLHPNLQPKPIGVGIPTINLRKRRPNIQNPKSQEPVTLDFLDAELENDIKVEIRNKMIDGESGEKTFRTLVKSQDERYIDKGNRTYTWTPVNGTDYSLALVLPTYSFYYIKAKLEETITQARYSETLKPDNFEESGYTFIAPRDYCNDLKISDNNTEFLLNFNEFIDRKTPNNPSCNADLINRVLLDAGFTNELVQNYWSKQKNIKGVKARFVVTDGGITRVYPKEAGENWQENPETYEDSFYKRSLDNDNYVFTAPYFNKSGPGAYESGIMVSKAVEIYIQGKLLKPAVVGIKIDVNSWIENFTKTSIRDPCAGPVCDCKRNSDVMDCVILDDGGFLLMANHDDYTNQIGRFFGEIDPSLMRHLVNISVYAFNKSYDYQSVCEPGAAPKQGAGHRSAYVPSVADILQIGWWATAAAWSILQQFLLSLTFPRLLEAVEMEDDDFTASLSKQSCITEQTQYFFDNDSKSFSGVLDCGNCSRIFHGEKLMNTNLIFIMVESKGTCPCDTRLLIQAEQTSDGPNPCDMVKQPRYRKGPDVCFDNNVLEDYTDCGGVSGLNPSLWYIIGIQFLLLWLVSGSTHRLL

`CCC[C@H](c1nc2cc(F)c(OC)cc2c(=O)n1CC)N1CCNC[C@H](C)C1` [Example 244, 3-ethyl-7-fluoro-6-methoxy-2-((R)-1-((S)-6-methyl-1,4-diazepan-1-yl)butyl)quinazolin-4(3H)-one]: the Ki (as a rule, the equilibrium dissociation constant of an inhibitor or competing ligand from its target) was greater than 1000 nM at Human σ1 receptor and 500 to 5000 nM in test [1]. In the case of `CCCC(c1nc2cc(Cl)c(Cl)cc2c(=O)n1CC)N1CCCN(C)CC1` (centres unmarked) [Example 87, 6,7-dichloro-3-ethyl-2-(1-(4-methyl-1,4-diazepan-1-yl)butyl)quinazolin-4(3H)-one], the Ki (on Human σ1 receptor; in test [1]) was less than 500 nM each time. `CCC[C@H](c1nc2cc(Cl)c(Cl)cc2c(=O)n1CC)N1CCN(C)C[C@@H](C)C1` [Example 132, 6,7-dichloro-2-((R)-1-((R)-4,6-dimethyl-1,4-diazepan-1-yl)butyl)-3-ethylquinazolin-4(3H)-one]: the Ki (at Human σ1 receptor; in test [1]) was less than 500 nM throughout. For the compound `CCCC(c1nc2ccc(Br)cc2c(=O)n1CC(C)C)N1CCCN(C)CC1` (centres unmarked) [Example 54, 6-bromo-3-isobutyl-2-(1-(4-methyl-1,4-diazepan-1-yl)butyl)quinazolin-4(3H)-one], the Ki at Human σ1 receptor was 500 to 1000 nM; in test [1], less than 500 nM.

For `CCC[C@H](c1nc2ccc(Cl)cc2c(=O)n1C)N1CCCN[C@H](C)C1` [Example 147, 6-Chloro-3-methyl-2-((R)-1-((R)-3-methyl-1,4-diazepan-1-yl)butyl)quinazolin-4(3H)-one], the Ki (at Human σ1 receptor; in test [1]) was less than 500 nM each time.

As to `CCCC(c1nc2cc(F)c(F)cc2c(=O)n1CC)N1CCCN(C)CC1` (centres unmarked) [Example 29, 3-ethyl-6,7-difluoro-2-(1-(4-methyl-1,4-diazepan-1-yl)butyl)quinazolin-4(3H)-one], the Ki at Human σ1 receptor was 500 to 1000 nM; in test [1], less than 500 nM. For `CCCCn1c([C@@H](CCC)N2CCCN(CC)CC2)nc2ccc(F)cc2c1=O` [Example 225, (R)-3-butyl-2-(1-(4-ethyl-1,4-diazepan-1-yl)butyl)-6-fluoroquinazolin-4(3H)-one] the same measures were less than 500 nM and less than 500 nM. Consider `CCC[C@H](c1nc2c(F)cc(F)cc2c(=O)n1CC)N1CCN[C@@H](C)CC1` [Example 251, 3-ethyl-6,8-difluoro-2-((R)-1-((S)-5-methyl-1,4-diazepan-1-yl)butyl)quinazolin-4(3H)-one], for which the inhibition constant Ki on Human σ1 receptor was less than 500 nM; in test [1] it was 500 to 5000 nM.

With `CCC[C@@H](c1nc2ncc(Br)cc2c(=O)n1CC)N1CCNC[C@@H](C)C1` [Example 198, 6-bromo-3-ethyl-2-((S)-1-((R)-6-methyl-1,4-diazepan-1-yl)butyl)pyrido[2,3-d]pyrimidin-4(3H)-one], the results for the Ki (at Human σ1 receptor; in test [1]) were greater than 1000 nM and greater than 5000 nM, respectively.

For `CCC[C@H](c1nc2cc(F)c(Br)cc2c(=O)n1CC)N1CCCNCC1` [Example 157, (R)-2-(1-(1,4-Diazepan-1-yl)butyl)-6-bromo-3-ethyl-7-fluoroquinazolin-4(3H)-one], the inhibition constant (Ki) at Human σ1 receptor is greater than 1000 nM; in test [1], less than 500 nM. As for `CCCC(c1nc2cc(F)c(F)cc2c(=O)n1CC)N1CCCN(CC)CC1` (centres unmarked) [Example 46, 3-ethyl-2-(1-(4-ethyl-1,4-diazepan-1-yl)butyl)-6,7-difluoroquinazolin-4(3H)-one], the Ki (on Human σ1 receptor; in test [1]) was less than 500 nM each time.

As for `CCCC(c1nc2ccc(Br)c(Cl)c2c(=O)n1CC)N1CCCN(CC)CC1` (centres unmarked) [Example 83, 6-bromo-5-chloro-3-ethyl-2-(1-(4-ethyl-1,4-diazepan-1-yl)butyl)quinazolin-4(3H)-one], the Ki on Human σ1 receptor is less than 500 nM; in test [1], greater than 5000 nM. In the case of `CCCC(c1nc2ncc(Br)cc2c(=O)n1CCC)N1CCCN(C)CC1` (centres unmarked) [Example 181, 6-bromo-2-(1-(4-methyl-1,4-diazepan-1-yl)butyl)-3-propylpyrido[2,3-d]pyrimidin-4(3H)-one], the Ki was greater than 1000 nM at Human σ1 receptor and less than 500 nM in test [1]. In the same order, the values of `CCC[C@@H](c1nc2ccc(Br)cc2c(=O)n1CC)N1CC[C@H](C)N(C)CC1` [Example 263] are greater than 1000 nM and greater than 5000 nM. In the same order, the values of `CCC[C@H](c1nc2ncc(F)cc2c(=O)n1CC1CC1)N1CCN[C@H](C)CC1` [Example 196, 3-(cyclopropylmethyl)-6-fluoro-2-((R)-1-((R)-5-methyl-1,4-diazepan-1-yl)butyl)pyrido[2,3-d]pyrimidin-4(3H)-one] are greater than 1000 nM and less than 500 nM.

Consider `CCC[C@@H](c1nc2ccncc2c(=O)n1CC)N1CCCN(C)CC1` [Example 174, (S)-3-ethyl-2-(1-(4-methyl-1,4-diazepan-1-yl)butyl)pyrido[4,3-d]pyrimidin-4(3H)-one], for which the Ki at Human σ1 receptor is greater than 1000 nM; in test [1], greater than 5000 nM. In the same order, the values of `CCCC(c1nc2ccc(C#N)cc2c(=O)n1CC)N1CCCN(C)CC1` (centres unmarked) [Example 10, 3-ethyl-2-(1-(4-methyl-1,4-diazepan-1-yl)butyl)-4-oxo-3,4-dihydroquinazoline-6-carbonitrile] are greater than 1000 nM and less than 500 nM.

`CCC[C@H](c1nc2ccc(F)cc2c(=O)n1CC)N1CCCN(CC)CC1` [Example 210, (R)-3-ethyl-2-(1-(4-ethyl-1,4-diazepan-1-yl)butyl)-6-fluoroquinazolin-4(3H)-one]: the Ki (at Human σ1 receptor; in test [1]) was less than 500 nM throughout. Take `CCC[C@@H](c1nc2ccc(Cl)cc2c(=O)n1C)N1CCCN[C@H](C)C1` [Example 150, 6-chloro-3-methyl-2-((S)-1-((R)-3-methyl-1,4-diazepan-1-yl)butyl)quinazolin-4(3H)-one]: the Ki at Human σ1 receptor is 500 to 1000 nM; in test [1] it was greater than 5000 nM.

On to `CCCC(c1nc2c(C)cc(Br)cc2c(=O)n1CC)N1CCCN(CC)CC1` (centres unmarked) [Example 60, 6-bromo-3-ethyl-2-(1-(4-ethyl-1,4-diazepan-1-yl)butyl)-8-methylquinazolin-4(3H)-one], for which the Ki on Human σ1 receptor is less than 500 nM; in test [1] it was greater than 5000 nM. As to `CCCC(c1nc2ccc(Br)cc2c(=O)n1CC)N1CCN2CCC1CC2` (centres unmarked) [Example 80, 2-(1-(1,4-diazabicyclo[3.2.2]nonan-4-yl)butyl)-6-bromo-3-ethylquinazolin-4(3H)-one], the values for the Ki (at Human σ1 receptor; in test [1]) were greater than 1000 nM and greater than 5000 nM, respectively. In the same order, the values of `CCC[C@H](c1nc2cc(F)c(OC)cc2c(=O)n1CC)N1CCCN(C)CC1` [Example 220, (R)-3-ethyl-7-fluoro-6-methoxy-2-(1-(4-methyl-1,4-diazepan-1-yl)butyl)quinazolin-4(3H)-one] are greater than 1000 nM and less than 500 nM. Regarding `CCCC(c1nc2ccc(Br)cc2c(=O)n1CCC)N1CCCN(CC)CC1` (centres unmarked) [Example 20, 6-bromo-2-(1-(4-ethyl-1,4-diazepan-1-yl)butyl)-3-propylquinazolin-4(3H)-one], the Ki (on Human σ1 receptor; in test [1]) was less than 500 nM throughout. As to `CCC[C@H](c1nc2c(F)cc(Br)cc2c(=O)n1CC)N1CCCN(C)CC1` [Example 161, (R)-6-Bromo-3-ethyl-8-fluoro-2-(1-(4-methyl-1,4-diazepan-1-yl)butyl)quinazolin-4(3H)-one], the Ki on Human σ1 receptor is 500 to 1000 nM; in test [1], less than 500 nM. In the same order, the values of `CCCC(c1nc2cccnc2c(=O)n1CC)N1CCCN(CC)CC1` (centres unmarked) [Example 88, 3-ethyl-2-(1-(4-ethyl-1,4-diazepan-1-yl)butyl)pyrido[3,2-d]pyrimidin-4(3H)-one] are greater than 1000 nM and greater than 5000 nM.

Consider `CCCC(c1nc2ccc(Br)cc2c(=O)n1CC)N1CCCN(Cc2ccccc2)CC1` (centres unmarked) [Example 6, 2-(1-(4-benzyl-1,4-diazepan-1-yl)butyl)-6-bromo-3-ethylquinazolin-4(3H)-one], for which the Ki at Human σ1 receptor was less than 500 nM; in test [1], greater than 5000 nM.

`CCCC(c1nc2c(Cl)cc(F)cc2c(=O)n1CC)N1CCCN(C)CC1` (centres unmarked) [Example 64, 8-chloro-3-ethyl-6-fluoro-2-(1-(4-methyl-1,4-diazepan-1-yl)butyl)quinazolin-4(3H)-one]: the Ki on Human σ1 receptor is greater than 1000 nM; in test [1], greater than 5000 nM.

As to `CCC[C@H](c1nc2cc(F)c(Cl)cc2c(=O)n1CC)N1CCNC[C@@H](C)C1` [Example 119, 6-chloro-3-ethyl-7-fluoro-2-((R)-1-((R)-6-methyl-1,4-diazepan-1-yl)butyl)quinazolin-4(3H)-one], the Ki on Human σ1 receptor is 500 to 1000 nM; in test [1] it was less than 500 nM. In the same order, the values of `CCCC(c1nc2ccc(Br)c(Cl)c2c(=O)n1CC)N1CCCN(C)CC1` (centres unmarked) [Example 56, 6-bromo-5-chloro-3-ethyl-2-(1-(4-methyl-1,4-diazepan-1-yl)butyl)quinazolin-4(3H)-one] are less than 500 nM and 500 to 5000 nM. As to `CCCC(c1nc2ccc(Br)c(F)c2c(=O)n1CC)N1CCCN(C)CC1` (centres unmarked) [Example 51, 6-bromo-3-ethyl-5-fluoro-2-(1-(4-methyl-1,4-diazepan-1-yl)butyl)quinazolin-4(3H)-one], the Ki on Human σ1 receptor is less than 500 nM.
